Test results published in PubChem BioAssay AID248 (DTP/NCI, 2004).
Values joined by “and” are separate entries in the source; they are usually repeats but may differ in a detail not shown here. Identical values can stand only once. Toxic doses and inconclusive results are not listed. Rule as the data show it: active = T/C of 150% or more; inactive = T/C below 125%.

Test system: L1210 leukemia ip in BDF1 mice, survival T/C
Experiment: NCI In Vivo Anticancer Drug Screen. Data for tumor model L1210 Leukemia (intraperitoneal) in B6D2F1 (BDF1) mice
Settings: endpoint: mean survival time, higher = longer survival
Outline: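 Transplantable tumor model; survival measured in treated vs vehicle control mice. Value = treated/control.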

[1] = dose: 100.0 mg/kg/injection, schedule: Q04DX003 (ip), vehicle: saline with Tween-80
[2] = dose: 200.0 mg/kg/injection, schedule: Q04DX003 (ip), vehicle: saline with Tween-80
[3] = dose: 400.0 mg/kg/injection, schedule: Q04DX003 (ip), vehicle: saline with Tween-80
[4] = dose: 300.0 mg/kg/injection, schedule: Q01DX001 (ip), vehicle: carboxymethylcellulose (CMC)
[5] = dose: 100.0 mg/kg/injection, schedule: Q01DX009 (ip), vehicle: saline with Tween-80
[6] = dose: 200.0 mg/kg/injection, schedule: Q01DX009 (ip), vehicle: saline with Tween-80
[7] = dose: 75.0 mg/kg/injection, schedule: Q01DX001 (ip), vehicle: carboxymethylcellulose (CMC)
[8] = dose: 150.0 mg/kg/injection, schedule: Q01DX001 (ip), vehicle: carboxymethylcellulose (CMC)
[9] = dose: 100.0 mg/kg/injection, schedule: Q01DX009 (ip), vehicle: saline
[10] = dose: 100.0 mg/kg/injection, schedule: Q04DX003 (ip), vehicle: saline
[11] = dose: 200.0 mg/kg/injection, schedule: Q01DX009 (ip), vehicle: saline
[12] = dose: 200.0 mg/kg/injection, schedule: Q04DX003 (ip), vehicle: saline
[13] = dose: 400.0 mg/kg/injection, schedule: Q01DX009 (ip), vehicle: saline
[14] = dose: 400.0 mg/kg/injection, schedule: Q04DX003 (ip), vehicle: saline
[15] = dose: 100.0 mg/kg/injection, schedule: Q01DX001 (ip), vehicle: saline with Tween-80
[16] = dose: 200.0 mg/kg/injection, schedule: Q01DX001 (ip), vehicle: saline with Tween-80
[17] = dose: 100.0 mg/kg/injection, schedule: Q01DX009 (ip), vehicle: Klucel (hydroxypropylcellulose) (HPC)
[18] = dose: 100.0 mg/kg/injection, schedule: Q04DX003 (ip), vehicle: Klucel (hydroxypropylcellulose) (HPC)
[19] = dose: 200.0 mg/kg/injection, schedule: Q04DX003 (ip), vehicle: Klucel (hydroxypropylcellulose) (HPC)
[20] = dose: 400.0 mg/kg/injection, schedule: Q04DX003 (ip), vehicle: Klucel (hydroxypropylcellulose) (HPC)
[21] = dose: 200.0 mg/kg/injection, schedule: Q01DX009 (ip), vehicle: Klucel (hydroxypropylcellulose) (HPC)
[22] = dose: 400.0 mg/kg/injection, schedule: Q01DX009 (ip), vehicle: Klucel (hydroxypropylcellulose) (HPC)
[23] = dose: 25.0 mg/kg/injection, schedule: Q01DX009 (ip), vehicle: saline
[24] = dose: 50.0 mg/kg/injection, schedule: Q01DX009 (ip), vehicle: saline
[25] = dose: 100.0 mg/kg/injection, schedule: Q01DX001 (ip), vehicle: saline
[26] = dose: 200.0 mg/kg/injection, schedule: Q01DX001 (ip), vehicle: saline
[27] = dose: 400.0 mg/kg/injection, schedule: Q01DX001 (ip), vehicle: saline

Measured: T/C

CCCCSc1n[nH]c(=O)nc1SC
inactive: dose: 100.0 mg/kg/injection, schedule: Q01DX001 (ip), vehicle: acetone 104 % of control

CCCCCCOC(=O)Nc1cccc(O)c1
inactive: [1] 104 % of control | [2] 101 % of control | [3] 91 % of control

Cc1ccc(S(=O)(=O)OCCN(CCOS(=O)(=O)c2ccc(C)cc2)c2cccc(F)c2)cc1
inactive: dose: 50.0 mg/kg/injection, schedule: Q01DX001 (ip), vehicle: carboxymethylcellulose (CMC) 101 % of control and 114 % of control | dose: 90.0 mg/kg/injection, schedule: Q01DX001 (ip), vehicle: carboxymethylcellulose (CMC) 103 % of control and 122 % of control | dose: 100.0 mg/kg/injection, schedule: Q01DX001 (ip), vehicle: carboxymethylcellulose (CMC) 103 % of control and 106 % of control | dose: 135.0 mg/kg/injection, schedule: Q01DX001 (ip), vehicle: carboxymethylcellulose (CMC) 106 % of control and 110 % of control | [4] 115 % of control and 120 % of control | dose: 400.0 mg/kg/injection, schedule: Q01DX001 (ip), vehicle: carboxymethylcellulose (CMC) 109 % of control and 116 % of control

C=CCSC(=S)N(C)C
inactive: dose: 25.0 mg/kg/injection, schedule: Q04DX002 (ip), vehicle: saline 101 % of control | dose: 50.0 mg/kg/injection, schedule: Q04DX002 (ip), vehicle: saline 89 % of control

CC(C)=C(C=O)CCC(C)C
inactive: [5] 93 % of control | [1] 95 % of control | [6] 88 % of control | [2] 93 % of control | [3] 97 % of control

CN(C)CCS(=O)(=O)CCc1ccccc1
inactive: [7] 106 % of control | [8] 98 % of control | [4] 101 % of control

C=CCOCC(O)CN(C)CC1CCCO1 (stereo not drawn)
inactive: [9] 95 % of control | [10] 98 % of control | [11] 95 % of control | [12] 86 % of control

O=C(O)COCC(F)(F)C(F)(F)C(F)(F)COCC(=O)O
inactive: [9] 92 % of control | [10] 97 % of control | [11] 97 % of control | [12] 98 % of control | [13] 110 % of control | [14] 93 % of control

Nc1ncnc(N)c1NC(=O)c1cccc(-c2ccccc2)c1
inactive: [15] 97 % of control | [16] 101 % of control | dose: 400.0 mg/kg/injection, schedule: Q01DX001 (ip), vehicle: saline with Tween-80 90 % of control

OCCC1CC1=C1CC1 (stereo not drawn)
inactive: dose: 50.0 mg/kg/injection, schedule: Q01DX009 (ip), vehicle: Klucel (hydroxypropylcellulose) (HPC) 101 % of control | [17] 98 % of control

O=[N+]([O-])c1ccc2nc(NCCCO)c3ccccc3c2c1
inactive: [18] 120 % of control | [19] 124 % of control | [20] 96 % of control

CSc1nc(N)c2c(=O)c(C(N)=O)cn(C3OC(CO)C(O)C3O)c2n1 (stereo not drawn)
inactive: dose: 100.0 mg/kg/injection, schedule: Q01DX005 (ip), vehicle: saline 95 % of control | dose: 200.0 mg/kg/injection, schedule: Q01DX005 (ip), vehicle: saline 93 % of control

CC(OC(=O)c1ccccc1)c1ccccc1 (stereo not drawn)
inactive: [17] 94 % of control | [18] 101 % of control | [21] 100 % of control | [19] 103 % of control | [22] 96 % of control | [20] 101 % of control

CN1CCN(C(=S)Nc2ccc([N+](=O)[O-])cc2)CC1
inactive: [17] 98 % of control | [21] 105 % of control | [22] 96 % of control

O=C(Nc1ccccc1[N+](=O)[O-])OCc1ccc([N+](=O)[O-])cc1
inactive: [1] 92 % of control | [2] 105 % of control | [3] 105 % of control

CC(=O)OCC12CCC(O1)C1C(=O)OC(=O)C12 (stereo not drawn)
inactive: [17] 91 % of control | [18] 97 % of control | [21] 88 % of control | [19] 98 % of control | [22] 93 % of control | [20] 90 % of control

C1CN2CCC1CC2
inactive: dose: 10.0 mg/kg/injection, schedule: Q01DX001 (ip), vehicle: saline 93 % of control | dose: 50.0 mg/kg/injection, schedule: Q01DX009 (ip), vehicle: saline with Tween-80 98 % of control | [5] 97 % of control | [1] 106 % of control | [2] 93 % of control

CN(C)C1CC[N-]CC1.CN(C)C1CC[N-]CC1.[Cl][Pt+2][Cl]
inactive: [23] 110 % of control | [24] 110 % of control | [10] 92 % of control

CCC(CO)Nc1nc2c(Cl)cc(Cl)cc2c2ccccc12 (stereo not drawn)
inactive: [18] 100 % of control | [19] 100 % of control | [20] 90 % of control

O=C1NC2(CCCCC2)C(=O)N1CCCl
inactive: dose: 50.0 mg/kg/injection, schedule: Q04DX003 (ip), vehicle: saline 101 % of control | [10] 109 % of control | [12] 106 % of control | [14] 101 % of control

Cc1nc(N)[nH]c(=O)c1CCCNC(=O)c1cccc(CBr)c1
inactive: dose: 50.0 mg/kg/injection, schedule: Q01DX001 (ip), vehicle: Klucel (hydroxypropylcellulose) (HPC) 101 % of control | dose: 100.0 mg/kg/injection, schedule: Q01DX001 (ip), vehicle: Klucel (hydroxypropylcellulose) (HPC) 100 % of control | dose: 200.0 mg/kg/injection, schedule: Q04DX002 (ip), vehicle: Klucel (hydroxypropylcellulose) (HPC) 102 % of control

CCC(=O)c1ccc(OCC(O)CN2CCN(c3ccccc3OC)CC2)cc1 (stereo not drawn)
inactive: [1] 96 % of control | [2] 96 % of control | [3] 103 % of control

COc1cc2c(cc1OC)C(Cc1cc3c(cc1[N+](=O)[O-])OCO3)=NCC2
inactive: [25] 96 % of control | [26] 96 % of control | [27] 93 % of control

CCC1COC(=O)N1 (stereo not drawn)
inactive: [23] 102 % of control | dose: 50.0 mg/kg/injection, schedule: Q01DX001 (ip), vehicle: saline 95 % of control | [24] 105 % of control | [25] 100 % of control

C=C(C)Cc1c(C)c(C)c(OS(=O)(=O)c2ccc(Br)cc2)c(C)c1C
inactive: dose: 50.0 mg/kg/injection, schedule: Q04DX003 (ip), vehicle: gum acacia 89 % of control | dose: 100.0 mg/kg/injection, schedule: Q04DX003 (ip), vehicle: gum acacia 89 % of control | dose: 200.0 mg/kg/injection, schedule: Q04DX003 (ip), vehicle: gum acacia 91 % of control

COc1cc(C(=O)N2CCOC23CCN(Cc2ccccc2)CC3)cc(OC)c1OC
inactive: [5] 95 % of control | [1] 102 % of control | [6] 90 % of control | [2] 100 % of control | [3] 100 % of control

NC(N)=Nc1ccc(C(=O)Oc2ccc([N+](=O)[O-])cc2)cc1
inactive: [1] 108 % of control | [2] 94 % of control | [3] 89 % of control

NNC(=S)Nc1cccc2ccccc12
inactive: [7] 93 % of control | [8] 93 % of control

Nc1nc(N)[n+]([O-])c(N)c1NCO
inactive: dose: 88.0 mg/kg/injection, schedule: Q01DX001 (ip), vehicle: other 101 % of control | dose: 100.0 mg/kg/injection, schedule: Q01DX001 (ip), vehicle: other 97 % of control | dose: 133.0 mg/kg/injection, schedule: Q01DX001 (ip), vehicle: other 103 % of control | dose: 300.0 mg/kg/injection, schedule: Q01DX001 (ip), vehicle: other 103 % of control | dose: 400.0 mg/kg/injection, schedule: Q01DX001 (ip), vehicle: other 94 % of control

O=C(O)C1OC(n2cc(I)c(=O)[nH]c2=O)CC1O (stereo not drawn)
inactive: [25] 107 % of control | [26] 103 % of control | [27] 100 % of control

O=C(C1=CCCC1)C1=CCCC1
inactive: dose: 50.0 mg/kg/injection, schedule: Q01DX001 (ip), vehicle: saline with Tween-80 99 % of control | [15] 105 % of control | [16] 99 % of control

Nc1ncnn1C(=O)NCCCl
inactive: [9] 94 % of control | [10] 101 % of control | [11] 97 % of control | [12] 101 % of control | [13] 97 % of control | [14] 101 % of control

O=N[O-].O=N[O-].O=N[O-].O=N[O-].[Co+2].[NH2-].[NH2-]
inactive: [1] 115 % of control | [2] 118 % of control
